Results as given in patent US20090281025A1, “INHIBITION OF TUMOR GROWTH AND METASTASIS BY ATF2-DERIVED PEPTIDES” (Mount Sinai School Of Medicine of New York University, priority 2004, published 2009).
“Also recorded” adds a separate entry of the source.

Experiments:
[1] = system: Human melanoma cells LU1205; assay: Caspase and PARP cleavage immunoblot in LU1205 cells; assay type: cell-based; settings: peptides by transfection, UCN-01 (5 μm) 24 hours
Method: (§1) Human melanoma cells LU1205 were transfected with the nucleic acid molecules that encode either ATF2^51-100 peptide or ATF2^51-60 peptide. Twenty-four hours after transfection, cells were treated with of UCN-01 (5 μm) for 24 hours. Immunoblotting analysis was performed using caspase 9 and PARP antibodies, and β-actin was used as a loading control (FIG. 6A). The same experiment was performed in SW-1 cells (FIG. 6B). Stars point to the position of the uncleaved form whereas arrows point to the cleaved products.
(§2) Effect on Apoptosis. Assessed next was the degree of apoptosis in SW1 cells under normal growth (spontaneous) as well as following treatment with chemotherapeutic drugs. Cells were analyzed to detect spontaneous (basal) or induced apoptosis [following treatment with the kinase inhibitor UCN-01 (kindly provided by NCI repository) for 36 hours]. Apoptosis was measured by using FACS (Ivanov et al., Mol. Cell, 2001, 7:517-28) to quantify the percentage of hypodiploid nuclei undergoing DNA fragmentation. Nucleation as a marker of apoptosis was monitored via DAPI staining of cells at indicated time points after their treatment. Caspase activity was monitored by immunoblots using antibodies to caspase 9 (Santa Cruz). PARP cleavage was monitored by corresponding antibodies (PharMingen).

[2] = system: SW-1 cells; assay: Caspase and PARP cleavage immunoblot in SW-1 cells; assay type: cell-based, mouse; settings: peptides by transfection, UCN-01 (5 μm) 24 hours
Method: as §1, §2

[3] = system: SW1 melanoma cells; assay: Apoptosis of SW1 cells by FACS (hypodiploid nuclei); assay type: cell-based, mouse; settings: SW1 cells expressing peptide, treated with UCN-01; given as control-to-peptide increase
Method: (§3) SW1 cells constitutively expressing the indicated ATF2 peptides were transfected with either TRE-Luc (FIG. 5A) or with Jun2-Luc (FIG. 5B), and proteins were prepared for analysis of luciferase activity after 18 hours. Analysis was performed in duplicate, and the data reflect three independent experiments. SW1 cells expressing the ATF2 peptides were analyzed to establish the degree of spontaneous (basal) apoptosis as well as apoptosis 24 hours following treatment with the chemotherapeutic drug UCN-01 (FIG. 5C). The data represent triplicate analysis reproduced three times.
as §2

[4] = system: Jun2-Luc; assay: Jun2-Luc luciferase reporter assay in SW1 cells; assay type: cell-based, mouse; settings: SW1 cells expressing peptide, luciferase after 18 hours
Method: as §3
(§4) Alteration of ATF2 Transcriptional Activity. Assessed next was whether the short peptide caused any change in transcriptional activity mediated by ATF2 and its heterodimeric partners, using the TRE and Jun2 promoter sequences linked to the Luciferase marker gene. These reporter constructs (0.3 μg) were cotransfected with the respective expression vectors into melanoma cells (5×10^5) using Lipofectamine (Invitrogen). Luciferase activity was measured using the Luciferase assay system (Promega).

[5] = target: T1, JNK-c-Jun association (Homo sapiens, UniProt P45984); assay: In vitro association of bead-bound JNK with c-Jun; assay type: binding; settings: 35S-labeled in vitro translated c-Jun, synthetic peptide
T1 construct: made in house; host or cells: JNK2 from transfected 293T cells; c-Jun from the TNT-coupled reticulocyte lysate system (Promega)
Method: (§5) HA-JNK was transfected into 293T cells and 24 h later JNK was immunoprecipitated and bound to protein G beads. Bead-bound JNK was incubated with in vitro-translated c-Jun or ATF2 in the absence or presence of the wt or mutant form of ATF2^51-60. Following incubation bead-bound JNK was washed (see Example 4) and the amount of bound Jun or ATF2 was assessed via SDS-PAGE analysis subjected to autoradiography (Panel A) and quantification with the aid of a phosphor imager (Panels B and C).
(§6) Effect on JNK/Jun Association. The short peptide's ability to elicit major changes in TRE-dependent transcription and spontaneous apoptosis led to an assessment of possible changes in the JNK-Jun association. Flag JNK2 expressed in 293T cells extracted, immunopurified with anti-Flag antibody bound to Protein G agarose beads were first incubated with 3 mg/ml of BSA in phosphate-buffered saline for 2 h, followed by incubation at 4° C. for 2 h with ^35S-labeled in vitro translated c-Jun or ATF2 (TNT-coupled reticulocyte lysate system, Promega) in the presence of WT or mutant peptide. Bead-bound material was subjected to three washes with 20 mM Tris [pH 7.5], 150 mM NaCl, 1 mM EDTA, 1 mM EGTA, 0.5% NP-40, 1 mM NaVO4, and 1 mM DTT supplemented with protease inhibitors. […] Binding was detected by autoradiography and quantified with the aid of a phosphorimager. […]

[6] = system: SW1 cells; assay: Tumor growth of SW1 cells constitutively expressing ATF2 peptides, injected subcutaneously; assay type: in vivo, mouse; settings: constitutive expression, 18 days
Method: SW1 cells, which constitutively express the peptides indicated in FIG. 4A, were analyzed to detect expression of ATF2 peptides at the RNA level using RT-PCR. The indicated MW bands reflect the expected size product. SW1 cells (10^6) were injected subcutaneously into […] mice and tumor growth was monitored for 18 days, at which point tumors were removed and their size carefully assessed (FIG. 4B). Each group included 6 animals and each experiment was performed twice (P<0.01; T-test).
Inhibition of Tumor Growth. To examine the importance of the JNK association domain on ATF2, the possible role of a smaller peptide containing an intact JNK binding site (i.e., amino acids M^51T^52 of ATF2) was examined. To this end, three peptides of differing sizes (amino acids 51-80, 51-70, and 51-60) were compared to ATF2^51-100 peptide in their ability to inhibit tumor growth of SW1 cells in vivo. RT-PCR reactions confirmed the expression of these peptides' transcripts in the SW1 cells (FIG. 4A). […] However, expression of the 50aa peptide in these cells (constitutive expression based on selection of drug-resistant cells) decreased tumor size to 300 mm^3. Strikingly, constitutive expression of each of the 3 shorter peptides also elicited inhibition of melanoma growth that varied from 400-600 mm^3 (FIG. 4B). […] Further evaluation was performed on this 10 amino acid peptide.

[7] = system: TRE-Luc; assay: TRE-Luc luciferase reporter assay in SW1 cells; assay type: cell-based, mouse; settings: SW1 cells expressing peptide, luciferase after 18 hours
Method: as §3, §4

[8] = target: T2, JNK-ATF2 association (Homo sapiens, UniProt P45984); assay: In vitro association of bead-bound JNK with ATF2; assay type: binding; settings: 35S-labeled in vitro translated ATF2, synthetic peptide
T2 construct: made in house; host or cells: JNK2 from transfected 293T cells; ATF2 from the TNT-coupled reticulocyte lysate system (Promega)
Method: as §5, §6

JNK-ATF2 association [8] | Compound | PARP cleavage [1] | activation of caspase 9 (cleavage fragments) [1] | PARP cleavage [2] | activation of caspase 9 (cleavage fragments) [2] | UCN-01-induced apoptosis [3] | Jun2-Luc transcriptional activity [4] | Jun2-Luc transcriptional activity ([4]; listed as 51-60 amino acid peptide) | association between JNK and c-Jun [5] | inhibition of SW1 melanoma growth in vivo [6] | inhibition of SW1 melanoma growth in vivo ([6]; listed as 51-60) | TRE-Luc activity [7]
– | CN[C@@H]1C[C@H]2O[C@@](C)([C@@H]1OC)n1c3ccccc3c3c4c(c5c6ccccc6n2c5c31)C(=O)N[C@@H]4O [UCN-01, reference compound] | PARP cleavage was observed | caused activation of caspase 9 | PARP cleavage was observed | caused activation of caspase 9 | – | – | – | – | – | – | –
not observed | ATF2^51-60: ATF2 peptide from amino acid residue 51 to 60 (about a 10 amino acid peptide); expressed in cells or synthesized (MTLKFGPARN; UniProt P15336 51-60, looked up, fragment) | – | activation of caspase 9 even prior to treatment with UCN-01 | – | activation of caspase 9 even prior to treatment with UCN-01 | 20-40% | does not significantly affect Jun2-Luc activity | no longer inhibited and slightly elevated | increases the in vitro association between JNK and c-Jun in a dose-dependent manner; also recorded: increases Jun association with JNK | inhibits melanoma growth in vivo | efficient inhibition close to that observed with the 50 amino acid peptide | efficient in increasing TRE-Luc activities; also recorded: increases TRE-Luc activity
– | ATF2^51-70: ATF2 peptide from amino acid residue 51 to 70 (about a 20 amino acid peptide) (MTLKFGPARNDSVIVADQTP; UniProt P15336 51-70, looked up, fragment) | – | – | – | – | – | – | – | – | efficient inhibition close to that observed with the 50 amino acid peptide | – | –
